In US6743609B1, “Linoleate isomerase” (Arkion Life Sciences LLC, priority 1997, dated 2004):
pKi: −log10 of the molar value.

Experiments:
9,11 linoleate isomerase = assay: Test of possible inducers of the 9,11 linoleate isomerase in the growth medium; assay type: cell-based, Lactobacillus reuteri; conditions: 100 mg/l in the growth medium
Procedure: Several substances were tested as possible inducers of the 9,11 linoleate isomerase. The materials tested included: lauric acid, myristic acid, palmitic acid, palmitoleic acid, oleic acid, linoleic acid, linolenic acid, oleic acid stearyl ester, linoleyl alcohol, linoleic acid methyl ester, linoleic acid ethyl ester, stearic acid and linoleic acid methyl ester. They were added to the growth medium at a 100 mg/l level.

[1] = tested on: P. acnes ATCC 6919 linoleate isomerase; assay: Effect of cofactors, metals, chelators and sulfhydryl reagents on isomerase activity of crude soluble enzyme preparation; assay type: biochemical, Propionibacterium acnes; conditions: for effect of possible cofactor on isomerase activity: 60 minute assays
Procedure: A number of possible cofactors were tested for their effect on isomerase activity, including NAD, NADH, NADP, NADPH, FAD, FMN, ADP, ATP and glutathione.
(§1) Generally, the isomerase was assayed using an endpoint assay after 30 to 60 minutes incubation at room temperature. FIG. 18 (time course assay at different linoleic acid levels) and FIG. 19 (end point assay at different linoleic acid levels) show the effect of increasing substrate concentration on formation of […].

L. reuteri PYR8 = assay: Whole cell biotransformation of linoleic acid to CLA; assay type: cell-based, Lactobacillus reuteri; conditions: for (cis,trans)-9,11-CLA formation on addition of nonionic detergent: detergents added to 0.1-0.5% final concentration
Procedure: Cultures were grown and harvested as described above. Washed cells were resuspended in either fresh growth medium or 0.1 M Tris pH 8.0 buffer containing linoleic acid at various concentrations.
Samples were taken at appropriate intervals and analyzed for CLA as described in Example 2. In some experiments, various detergents were added to 0.1-0.5% final concentration. […] About 5 mL solvent was added to about 20 mL aqueous cell suspension in a 125 mL baffled shake flask incubated at room temperature.
Linoleic acid was added as 99% LA, dissolved in propyleneglycol (100 mg/ml solution) or emulsified with 0.5, 5 or 30% lecithin. The emulsion was prepared by blending the linoleic acid and the lecithin with the reaction medium before the addition of the cells. Linoleic acid was added at 1000 and 2000 ppm.
In the second experiment, cell recycle was studied with cells that have performed the biotransformation at different levels of linoleic acid. Cells were harvested, resuspended in breakage buffer at a 10-fold concentration, and linoleic acid was added at 1000, 1500, 2000, 2500 and 3000 ppm level. Given the higher linoleic acid concentration, the reaction was allowed to proceed for six hours. […] 1000 ppm linoleic acid were added and the reaction was followed for four hours.

[2] = tested on: C. sporogenes ATCC 25762 linoleate isomerase; assay: Effect of additives, buffer components and detergents on C. sporogenes isomerase activity; assay type: biochemical, Clostridium sporogenes
Procedure: It has been reported that solubilization in the presence of lysophosphatidylcholine (LPC) allows higher detergent concentrations to be used, thus allowing more complete membrane protein solubilization. CaCl2 can activate enzymes, such as some nucleases.
A third nonionic detergent, octyl glucoside (OG) was tested for its ability to solubilize the C. sporogenes linoleate isomerase.

[3] = tested on: Clostridium sporogenes ATCC 25762 linoleate isomerase; assay: Linoleate isomerase activity versus linoleic acid concentration; assay type: biochemical; conditions: tested from 0 to 100 ppm, FIG. 26
Procedure: (§2) About 50 to about 250 μL of enzyme sample was added to 1.5 mL of enzyme assay buffer for reaction. About 1 to about 2 mL of aqueous phase was separated from the enzyme reaction and was extracted with about 3 mL of hexane. […] Depending on the level of activity, assay mixtures of chromatography fractions were incubated at room temperature from about 1 to about 24 hours before extraction with hexane.
Temperature optimization with crude extracts was carried out at 4° C., room temperature (˜25° C.) and 37° C. The best temperature for the isomerase activity was room temperature (FIG. 25). The isomerase activity decreased to 73% of optimum at 4° C. and 63% of optimum at 37° C.
The concentration of linoleic acid was tested from 0 to 100 ppm (FIG. 26). The optimum concentration for linoleic add was determined to be 40 ppm.

linoleate isomerase = assay type: biochemical; conditions: pH optimum of about 7.5
[4] = target: T1, Propionibacterium acnes ATCC 6919 linoleate isomerase (10,12-linoleate isomerase) (Cutibacterium acnes, UniProt Q6A8X5); assay: Linoleate isomerase activity in crude soluble extract, effect of cofactors, chelators, sulfhydryl reagents and substrate level; assay type: biochemical; conditions: increasing linoleic acid levels, FIGS. 18 and 19
T1 construct: gene not cloned in this document
Procedure: as §2
Enzyme extracts were prepared by French Press and the extract fractionated as outlined in FIG. 15. Taking the total isomerase activity in fraction A as 100%, over 93% of the activity was detected in the soluble protein fraction (B) Less than 1% of the isomerase activity was found in the washed pellet, or membrane fraction (C). Approximately 2% of the activity was located in the buffer fraction (D), after the pellet washing and centrifugation steps. Thus, the P. acnes isomerase clearly is not a membrane protein, unlike the isomerase activities in L. reuteri PYR8 and other strains examined to date.
Calcium and magnesium also had no effect.
as §1

[5] = tested on: isolated linoleate isomerase (source organism not stated with the values); assay: Michaelis-Menten kinetics of isolated linoleate isomerase (linoleic acid substrate, oleic acid inhibition)
[6] = tested on: Lactobacillus reuteri PYR8 9,11 linoleate isomerase (whole cells); assay: Whole-cell biotransformation of linoleic acid, effect of product and substrate on isomerase; assay type: cell-based; conditions: 700 ppm CLA from recycled reaction broth, 1000 ppm linoleic acid
Source text: The following example describes the determination of conditions to improve enzyme stability and performance and on testing the limitations of the biotransformation process. Whole cells of L. reuteri PYR8 were used in all biotransformation experiments described below.
The effect of substrate and product on the enzyme performance was also investigated, as well as the possibility of recycling the cells. The effect of CLA on the reaction was studied by adding different concentrations of either a mixture of isomers (Sigma material, approximately 41% 9,11 isomer and 48% 10,12 CLA), or just 9,11 CLA (Matreya material, approximately 77% 9,11 CLA). Concentrations from 500 to 3000 ppm were tested. Some experiments were also performed recycling the broth from a previous biotransformation reaction with L. reuteri PYR8, resulting in an initial CLA concentration around 700 ppm. In every case, 1000 ppm linoleic acid were added. […] In the same period, almost complete conversion of the linoleic acid was obtained in the control without exogenous CLA. However, the effect was not detected when the CLA present came from recycled reaction broth. […] The results may indicate that some of the impurities present in the chemically produced CLA may be stronger inhibitors of the 9,11 isomerase than the product itself. […]

T1 sequence (Q6A8X5 entry or part of it): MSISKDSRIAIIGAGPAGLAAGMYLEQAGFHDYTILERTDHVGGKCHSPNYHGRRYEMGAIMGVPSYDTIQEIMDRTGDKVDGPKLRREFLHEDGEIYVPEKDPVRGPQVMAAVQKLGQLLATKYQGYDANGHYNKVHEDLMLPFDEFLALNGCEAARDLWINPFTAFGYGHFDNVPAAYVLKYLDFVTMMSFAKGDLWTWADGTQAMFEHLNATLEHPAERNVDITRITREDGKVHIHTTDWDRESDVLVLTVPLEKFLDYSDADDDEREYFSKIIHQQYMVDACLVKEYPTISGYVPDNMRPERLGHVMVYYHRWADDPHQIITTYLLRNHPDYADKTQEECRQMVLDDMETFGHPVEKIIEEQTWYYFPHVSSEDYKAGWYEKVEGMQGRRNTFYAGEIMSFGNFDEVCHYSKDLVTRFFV

In the case of `CCCCCCCC/C=C\CCCCCCCC(=O)OCCCCCCCCCCCCCCCCCC` [oleic acid stearyl ester], the “effect as inducer on expression and/or activity of the isomerase” value (“effect as inducer” for short) (9,11 linoleate isomerase) was “No positive effect”.

`[Mg]` [magnesium] was tested, and the “effect of metal on isomerase activity” value [1] was “no effect”.

With `CCCCCCCCCCCCCCCC(=O)O` [palmitic acid] the “effect as inducer” value (9,11 linoleate isomerase) was “No positive effect”.

In the case of `CCCCC/C=C\C/C=C\CCCCCCCC(=O)OCC` [linoleic acid ethyl ester], the “effect as inducer” value (9,11 linoleate isomerase) was “No positive effect”.

With `CCCCCCCC/C=C\CCCCCCCC(=O)OCCOCC(OCCO)C1OCC(OCCO)C1OCCO` (stereo not shown) [Tween-80] the “(cis,trans)-9,11-CLA formation on addition of nonionic detergent” value (L. reuteri PYR8) was “does not significantly increase”.

With `OCC(O)CO` [glycerol] the “increase in activity on increasing the concentration” value ([2]; extraction buffer) was 30%.

With Triton X-100 the “(cis,trans)-9,11-CLA formation on addition of nonionic detergent” value (L. reuteri PYR8) was “does not significantly increase”.

For `CCCCC/C=C\C/C=C\CCCCCCCCO` [linoleyl alcohol], the “effect as inducer” value (9,11 linoleate isomerase) was “No positive effect”.

`CCCCCCCCO[C@@H]1O[C@H](CO)[C@@H](O)[C@H](O)[C@H]1O` [OG, octyl glucoside] was tested, and the “isomerase specific activity higher than that of OTGP solubilized isomerase” value ([2]; 1.5% (2×critical micelle concentration)) was “about 20%”.

For `N[C@@H](CCC(=O)N[C@@H](CS)C(=O)NCC(=O)O)C(=O)O` [glutathione], the “effect of possible cofactor on isomerase activity” value (“effect of possible cofactor” below) [1] was “No significant effect”.

In the case of `CCCCC/C=C\C/C=C\CCCCCCCC(=O)O` [linoleic acid, (cis,cis)-9,12-linoleic acid], the “optimum concentration for linoleic acid” value [3] was 40 ppm, the Km (linoleate isomerase; read-out: Km for linoleic acid) was ~8.1 µM and the “substrate inhibition by linoleic acid” value [4] was “not subject to the same type of substrate inhibition”. For the same compound, the “effect as inducer” value (9,11 linoleate isomerase) was “No positive effect”, the substrate inhibition (L. reuteri PYR8; up to 3000 ppm linoleic acid, cells 10-fold concentrated in breakage buffer) was “no substrate inhibition was detected” and the “linoleic acid concentration at which initial velocity decreases” value [5] was “about 60 μM”.

With `NC(=O)c1ccc[n+]([C@@H]2O[C@H](COP(=O)([O-])OP(=O)(O)OC[C@H]3O[C@@H](n4cnc5c(N)ncnc54)[C@H](O)[C@@H]3O)[C@@H](O)[C@H]2O)c1` [NAD] the “effect of possible cofactor” value [1] was “No significant effect”.

In the case of `Nc1ncnc2c1ncn2[C@@H]1O[C@H](COP(=O)(O)OP(=O)(O)O)[C@@H](O)[C@H]1O` [ADP], the “effect of possible cofactor” value [1] was “No significant effect”.

`CCCCCCCCCCCC(=O)O` [lauric acid] was tested, and the “effect as inducer” value (9,11 linoleate isomerase) was “No positive effect”.

With `[Ca]` [Calcium] the “effect of metal on isomerase activity” value [1] was “no effect”.

For `CCCCC/C=C\C/C=C\CCCCCCCC(=O)OC` [linoleic acid methyl ester], the “effect as inducer” value (9,11 linoleate isomerase) was “No positive effect”.

`CCCCCC/C=C/C=C\CCCCCCCC(=O)O` [CLA] was tested, and the “effect of CLA from recycled reaction broth on conversion rate” value [6] was “no difference in conversion rate”.

`O=C(O)c1cc[c]([Hg][Cl])cc1` [p-chloromercuribenzoate] was tested, and the “inhibition of isomerase activity” value ([1]; 5 μM) was “not inhibited”.

In the case of `NC(=O)C1=CN([C@@H]2O[C@H](COP(=O)(O)OP(=O)(O)OC[C@H]3O[C@@H](n4cnc5c(N)ncnc54)[C@H](OP(=O)(O)O)[C@@H]3O)[C@@H](O)[C@H]2O)C=CC1` [NADPH], the “effect of possible cofactor” value [1] was “No significant effect”.

For `[Ca+2].[Cl-].[Cl-]` [CaCl2], the “effect on enzyme activity” value ([2]; Tris and phosphate buffer systems) was “decreased the enzyme activity” and the “effect on enzyme activity” value ([2]; temperatures higher than 37° C.) was “no effect on the activity”.

`c1cnc2c(c1)ccc1cccnc12` [1,10-phenanthroline] was tested, and the “inhibition of isomerase activity” value ([1]; 1 mM) was “not inhibited”.

In the case of `CCN1C(=O)C=CC1=O` [N-ethylmaleimide], the “inhibition of isomerase activity” value ([1]; 100 μM) was “not inhibited”.

For `Cc1cc2nc3c(=O)[nH]c(=O)nc-3n(C[C@H](O)[C@H](O)[C@H](O)COP(=O)(O)OP(=O)(O)OC[C@H]3O[C@@H](n4cnc5c(N)ncnc54)[C@H](O)[C@@H]3O)c2cc1C` [FAD], the “effect of possible cofactor” value [1] was “No significant effect”.

In the case of `CCCCCCCCCCCCCCCCCC(=O)O` [stearic acid], the “effect as inducer” value (9,11 linoleate isomerase) was “No positive effect”.

`NC(=O)C1=CN([C@@H]2O[C@H](COP(=O)(O)OP(=O)(O)OC[C@H]3O[C@@H](n4cnc5c(N)ncnc54)[C@H](O)[C@@H]3O)[C@@H](O)[C@H]2O)C=CC1` [NADH] was tested, and the “effect of possible cofactor” value [1] was “No significant effect”.

In the case of `CCCCCCCC/C=C\CCCCCCCC(=O)O` [oleic acid], the pKi (linoleate isomerase; read-out: Ki for oleic acid) was ~4.10 and the “effect as inducer” value (9,11 linoleate isomerase) was “No positive effect”.

For `Cc1cc2nc3c(=O)[nH]c(=O)nc-3n(C[C@H](O)[C@H](O)[C@H](O)COP(=O)(O)O)c2cc1C` [FMN], the “effect of possible cofactor” value [1] was “No significant effect”.

`NC(=O)c1ccc[n+]([C@@H]2O[C@H](COP(=O)([O-])OP(=O)(O)OC[C@H]3O[C@@H](n4cnc5c(N)ncnc54)[C@H](OP(=O)(O)O)[C@@H]3O)[C@@H](O)[C@H]2O)c1` [NADP] was tested, and the “effect of possible cofactor” value [1] was “No significant effect”.

In the case of `CCCCCCCCCCCCCC(=O)O` [myristic acid], the “effect as inducer” value (9,11 linoleate isomerase) was “No positive effect”.

With `CCCCCC/C=C\CCCCCCCC(=O)O` [palmitoleic acid] the “effect as inducer” value (9,11 linoleate isomerase) was “No positive effect”.
